Measured values reported in the supplement of paper PMC10307832.

Experiments:
Assay in all cases: relative viability (nuclei count vs DMSO), 5 days (fraction); higher = more cells survive
BI-D1870 + Navitoclax = compound: CC(C)CCN1c2nc(Nc3cc(F)c(O)c(F)c3)ncc2N(C)C(=O)C1C [BI-D1870] + CC1(C)CCC(c2ccc(Cl)cc2)=C(CN2CCN(c3ccc(C(=O)NS(=O)(=O)c4ccc(N[C@H](CCN5CCOCC5)CSc5ccccc5)c(S(=O)(=O)C(F)(F)F)c4)cc3)CC2)C1 [Navitoclax] (partner 0.5 µM)
Summary of the method: (§1)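 Lung cancer cell lines in 1536-well plates were dosed by pin tool the day after seeding, either with one drug alone or with a fixed anchor-drug dose plus five library-drug doses (not always all listed) in √10 steps. After 5 days, cells were fixed and their nuclei stained in one step (final 0.05% Triton X-100, 1% formaldehyde, 1 ug/ml Hoechst), then counted on 4× images. Relative viability is the nuclei count in treated wells divided by that in vehicle wells. Values are medians of duplicate plates.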

Zebularine = compound: O=c1ncccn1[C@@H]1O[C@H](CO)[C@@H](O)[C@H]1O [Zebularine]
Summary of the method: (§2)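 Lung cancer cell lines in 1536-well plates were kept overnight at 37 °C, then pinned with five library-drug doses (not always all listed) spaced by √10 on vehicle-anchored plates. After 5 days without medium change, cells were fixed, permeabilised and Hoechst-stained in one step, imaged at 4×, and nuclei were counted with MetaXpress. Viability is treated-well nuclei divided by vehicle-well nuclei, taken as the median over plates. Plates passed only with control CV below 25% and at least one doubling.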

BI-D1870 = compound: CC(C)CCN1c2nc(Nc3cc(F)c(O)c(F)c3)ncc2N(C)C(=O)C1C [BI-D1870]
Summary of the method: as §2

BI-D1870 + Foretinib = compound: CC(C)CCN1c2nc(Nc3cc(F)c(O)c(F)c3)ncc2N(C)C(=O)C1C [BI-D1870] + COc1cc2c(Oc3ccc(NC(=O)C4(C(=O)Nc5ccc(F)cc5)CC4)cc3F)ccnc2cc1OCCCN1CCOCC1 [Foretinib] (partner 0.25 µM)
Summary of the method: as §1

Cell Line | relative viability (BI-D1870 + Navitoclax; first compound 0.04 µM) | relative viability (BI-D1870 + Navitoclax; first compound 0.1265 µM) | relative viability (BI-D1870 + Navitoclax; first compound 0.4 µM) | relative viability (BI-D1870 + Navitoclax; first compound 1.265 µM) | relative viability (BI-D1870 + Navitoclax; first compound 4 µM) | relative viability (Zebularine; 1 µM) | relative viability (Zebularine; 3.162 µM) | relative viability (Zebularine; 10 µM) | relative viability (Zebularine; 31.62 µM) | relative viability (Zebularine; 100 µM) | relative viability (BI-D1870; 0.04 µM) | relative viability (BI-D1870; 0.1265 µM) | relative viability (BI-D1870; 0.4 µM) | relative viability (BI-D1870; 1.265 µM) | relative viability (BI-D1870; 4 µM) | relative viability (BI-D1870 + Foretinib; first compound 0.04 µM) | relative viability (BI-D1870 + Foretinib; first compound 0.1265 µM) | relative viability (BI-D1870 + Foretinib; first compound 0.4 µM) | relative viability (BI-D1870 + Foretinib; first compound 1.265 µM) | relative viability (BI-D1870 + Foretinib; first compound 4 µM)
HCC-44 | 1.04 | 0.944 | 0.999 | 1.1 | 0.847 | 1.05 | 1.02 | 0.701 | 0.843 | 0.44 | 1.04 | 0.876 | 0.989 | 1.07 | 1.03 |  |  |  |  | 
HCC-827 | 1.07 | 1.03 | 1.02 | 1.02 | 0.941 | 1.08 | 1.03 | 0.851 | 0.877 | 0.47 | 1.05 | 1.05 | 1.04 | 1.03 | 1.01 | 1.05 | 0.968 | 0.967 | 1.06 | 1.03
NCI-H1623 |  |  |  |  |  | 0.923 | 0.895 | 0.86 | 0.894 | 0.531 | 0.945 | 0.895 | 1.19 | 1.16 | 0.911 | 0.913 | 0.843 | 0.801 | 0.903 | 0.794
NCI-H2347 | 0.778 | 0.914 | 0.617 | 0.975 | 0.54 | 1.11 | 1.05 | 0.753 | 0.583 | 0.489 | 1.14 | 1.02 | 0.964 | 1.06 | 0.894 | 0.977 | 0.993 | 0.903 | 0.723 | 0.863
PC-14 | 1.08 | 0.961 | 0.991 | 1.07 | 0.928 | 1.18 | 0.694 | 0.19 | 0.138 | 0.109 | 1.09 | 0.943 | 0.97 | 1.08 | 0.767 | 0.936 | 0.865 | 0.908 | 0.952 | 0.945
NCI-H1651 | 1.15 | 0.946 | 0.935 | 1.08 | 0.778 | 1.04 | 0.989 | 0.718 | 0.911 | 0.57 | 0.997 | 0.911 | 0.945 | 1.04 | 0.914 | 0.921 | 0.807 | 0.882 | 0.771 | 0.356
HARA | 1.2 | 1.13 | 1.16 | 1.23 | 1.08 | 1.09 | 1.13 |  | 1.06 | 0.897 | 1.03 | 0.905 | 0.932 | 1.27 | 0.804 | 0.872 | 0.855 | 0.867 | 0.819 | 1.02
NCI-H1563 |  |  |  |  |  | 0.966 | 0.969 | 0.951 | 1.04 | 0.998 | 0.991 | 1.01 | 0.933 | 0.972 | 0.994 | 0.957 | 0.927 | 0.939 | 1.04 | 0.967
ABC-1 |  |  |  |  |  | 0.922 | 0.724 | 0.687 | 0.641 | 0.494 | 0.949 | 0.887 | 0.92 | 1.01 | 0.761 | 1.16 | 0.984 | 1.1 | 1.42 | 0.913
NCI-H522 |  |  |  |  |  | 0.9 | 1.08 | 0.87 | 0.928 | 0.847 | 0.974 | 1.15 | 1.04 | 1.08 | 0.841 |  |  |  |  | 
SW 900 |  |  |  |  |  | 1.04 | 0.839 | 0.661 | 0.843 | 0.651 | 1.03 | 0.95 | 0.864 | 1.02 | 0.894 | 0.855 | 0.949 | 0.893 | 0.751 | 1.22
NCI-H1792 | 0.655 | 0.666 | 0.597 | 0.791 | 0.608 | 1.1 | 0.925 | 0.431 | 0.449 | 0.277 | 1 | 0.981 | 0.828 | 1.15 | 0.613 |  |  |  |  | 
LCLC-103H |  |  |  |  |  | 0.959 | 0.987 | 0.867 | 1.04 | 0.842 | 1.03 | 0.967 | 0.94 | 1.06 | 0.838 | 0.842 | 0.662 | 0.777 | 0.866 | 0.566
NCI-H358 |  |  |  |  |  | 0.884 | 0.951 | 0.596 | 0.491 | 0.346 | 1.07 | 0.834 | 0.803 | 0.916 | 0.775 | 0.657 | 0.529 | 0.669 | 0.752 | 0.433
NCI-H1648 |  |  |  |  |  | 1.16 | 1.06 | 0.563 | 0.668 | 0.708 | 0.877 | 0.777 | 0.729 | 0.89 | 0.869 |  |  |  |  | 
NCI-H2342 |  |  |  |  |  | 1.01 | 0.953 | 0.757 | 0.984 | 0.853 | 0.983 | 0.919 | 1 | 1.09 | 1.15 | 1.04 | 1 | 1.11 | 1.18 | 1.23
NCI-H650 |  |  |  |  |  | 0.956 | 0.886 | 0.611 | 0.496 | 0.254 | 1.02 | 0.789 | 1.08 | 0.906 | 0.836 | 1.03 | 0.937 | 0.968 | 1.04 | 0.894
NCI-H661 |  |  |  |  |  | 1.02 | 0.958 | 0.961 | 1.06 | 1.04 | 1.03 | 0.974 | 1 | 1 | 0.955 | 1.02 | 0.989 | 1.04 | 1.03 | 0.969
